Where two headings read alike, the source gives them in different places.
Target: T1, SIRT1 (Homo sapiens, UniProt Q96EB6)
T1 sequence (Q96EB6 1-747): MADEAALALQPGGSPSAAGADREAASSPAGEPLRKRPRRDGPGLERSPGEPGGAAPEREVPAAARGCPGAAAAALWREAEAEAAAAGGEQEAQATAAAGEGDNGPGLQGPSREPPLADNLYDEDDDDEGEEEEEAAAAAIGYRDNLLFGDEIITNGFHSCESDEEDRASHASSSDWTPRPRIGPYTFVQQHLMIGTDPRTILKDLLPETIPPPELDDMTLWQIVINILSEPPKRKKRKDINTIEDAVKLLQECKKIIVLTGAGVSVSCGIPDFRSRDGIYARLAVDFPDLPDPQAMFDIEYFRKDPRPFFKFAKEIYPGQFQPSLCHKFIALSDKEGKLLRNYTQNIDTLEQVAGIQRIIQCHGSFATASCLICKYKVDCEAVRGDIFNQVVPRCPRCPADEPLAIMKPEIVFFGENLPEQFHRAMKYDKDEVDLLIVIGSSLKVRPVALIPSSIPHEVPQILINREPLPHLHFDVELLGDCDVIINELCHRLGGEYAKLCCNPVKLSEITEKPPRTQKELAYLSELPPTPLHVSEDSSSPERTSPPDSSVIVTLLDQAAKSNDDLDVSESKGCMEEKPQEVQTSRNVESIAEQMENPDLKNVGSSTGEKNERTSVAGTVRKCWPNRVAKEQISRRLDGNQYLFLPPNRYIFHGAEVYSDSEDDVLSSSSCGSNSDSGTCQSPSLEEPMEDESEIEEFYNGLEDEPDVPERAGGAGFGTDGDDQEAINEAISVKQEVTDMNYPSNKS
Assay: Trp mass spectrometry assay of SIRT1 activation
Assay type: biochemical
Settings: for TRP Activity (EC1.5): EC1.5 = concentration that results in 150% activation of SIRT1
Method in brief: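 N-terminal His-tagged human SIRT1 (10 nM, E. coli BL21(DE3)) with 0.5 μM Ac-RHKK(Ac)W-NH2 peptide and 120 μM βNAD+, 25 min at 25 °C in HEPES pH 7.5, formic acid stop. OAADPR or deacetylated peptide quantified by mass spectrometry; EC1.5 (50% activity increase over control) and Percent Maximum Activation reported.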

[1] = Trp peptide assay, maximum activity relative to control (100%), read-out: TRP MAX RESP (percent maximum fold activation)
[2] = concentration giving 150% activation of SIRT1, Trp peptide substrate
[3] = Trp mass spectrometry assay, concentration of test compound giving 150% activation of SIRT1
[4] = Trp mass spectrometry assay, EC1.5 = concentration of test compound that results in 150% activation of SIRT1
[5] = Trp peptide substrate, concentration giving 150% activation of SIRT1

SMILES: O=C(Nc1ccccn1)N1c2nc(N3CCC[C@H](C(F)(F)F)C3)ccc2N2CCC[C@H]1C2 [drawing 1172, (9S)-N-(pyridin-2-yl)-5-[(3S)-3-(trifluoromethyl)piperidin-1-yl]-1,6,8-triazatricyclo[7.3.1.0 {2,7}]trideca-2(7),3,5-triene-8-carboxamide]
- TRP Activity (EC1.5) (Trp peptide assay): B (B (EC1.5 1-25 μM))
- Emax [1]: > 150%

SMILES: COc1cc(NC(=O)N2c3nc(-c4cncc(C(F)(F)F)c4)ccc3N3C[C@@H](O)[C@H]2C3)ncn1 [Example 696]
- Tryp AVG EC1.5 (μM) [2]: B (B (EC1.5 1-25 μM))

SMILES: O=C(Nc1ccccn1)N1c2nc(-c3ccc(Cl)c(Cl)c3)ccc2N2CC[C@H]1C2 [Example 332]
- Tryp AVG EC1.5 (μM) [3]: A (A (EC1.5<1 μM))

SMILES: Cc1ncc(-c2ccc3c(n2)N(C(=O)Nc2cnccn2)[C@H]2CCN3C2)s1 [(9S)-5-(2-methyl-1,3-thiazol-5-yl)-N-(pyrazin-2-yl)-1,6,8-triazatricyclo[7.2.1.0 {2,7}]dodeca-2(7),3,5-triene-8-carboxamide]
- TRP Activity (EC1.5) (Trp peptide assay): B (B (EC1.5 1-25 μM))
- Emax [1]: > 150%

SMILES: CCOc1cc(-c2ccc3c(n2)N(C(=O)Nc2cnccn2)[C@H]2CCN3C2)ccn1 [(9S)-5-(2-ethoxypyridin-4-yl)-N-(pyrazin-2-yl)-1,6,8-triazatricyclo[7.2.1.0 {2,7}]dodeca-2(7),3,5-triene-8-carboxamide]
- TRP Activity (EC1.5) (Trp peptide assay): B (B (EC1.5 1-25 μM))
- Emax [1]: > 150%

SMILES: COC(=O)N1CCCN(c2ccc3c(n2)N(C(=O)Nc2ccncn2)[C@H]2CCCN3C2)CC1 [Example 446]
- Tryp AVG EC1.5 (μM) [4]: B (B (EC1.5 1-25 μM))

SMILES: CC(C)(C)OC(=O)NCCCc1cc(NC(=O)N2c3nc(-c4cccc(C(F)(F)F)c4)ccc3N3CCC[C@H]2C3)cc(-c2cnco2)c1 [Example 754]
- Tryp AVG EC1.5 (μM) [2]: A (A (EC1.5<1 μM))
- Emax (percent maximum fold activation of SIRT1, Trp peptide substrate, read-out: Tryp % Fold Act): > 150%

SMILES: CCC(=O)c1cccc(NC(=O)N2c3nc(-c4cccc(C(F)(F)F)c4)ccc3N3CC[C@H]2C3)c1 [Example 714]
- Tryp AVG EC1.5 (μM) [2]: A (A (EC1.5<1 μM))

SMILES: Cn1cc(-c2ccc3c(n2)N(C(=O)Nc2ccccn2)[C@H]2CCN3C2)cn1 [Example 349]
- Tryp AVG EC1.5 (μM) [3]: B (B (EC1.5 1-25 μM))

SMILES: Cc1ccncc1-c1ccc2c(n1)N(C(=O)Nc1ccncn1)[C@H]1CCCN2C1 [Example 518]
- Tryp AVG EC1.5 (μM) [4]: C (C (EC1.5>25 μM))

SMILES: O=C(Nc1cnccn1)N1c2nc(-c3ccnc(C4CC4)c3)ccc2N2CC[C@H]1C2 [(9S)-5-(2-cyclopropylpyridin-4-yl)-N-(pyrazin-2-yl)-1,6,8-triazatricyclo[7.2.1.0 {2,7}]dodeca-2,4,6-triene-8-carboxamide]
- TRP Activity (EC1.5) (Trp peptide assay): A (A (EC1.5<1 μM))
- Emax [1]: > 150%

SMILES: O=C(Nc1ccnc(OC[C@@H](O)CO)c1)N1c2nc(-c3cccc(C(F)(F)F)c3)ccc2N2CC[C@H]1C2 [(9S)-N-{2-[(2S)-2,3-dihydroxypropoxy]pyridin-4-yl}-5-[3-(trifluoromethyl)phenyl]-1,6,8-triazatricyclo[7.2.1.0 {2,7}]dodeca-2,4,6-triene-8-carboxamide]
- TRP Activity (EC1.5) (Trp peptide assay): A (A (EC1.5<1 μM))
- Emax [1]: > 150%

SMILES: CC(=O)N1CCCN(c2ccc3c(n2)N(C(=O)Nc2ccncn2)[C@H]2CCCN3C2)CC1 [Example 434]
- Tryp AVG EC1.5 (μM) [4]: C (C (EC1.5>25 μM))

SMILES: O=C(Nc1ccccn1)N1c2nc(N3CCC[C@H](C(F)(F)F)C3)ccc2N2CC[C@H]1C2 [(9S)-N-(pyridin-2-yl)-5-[(3S)-3-(trifluoromethyl)piperidin-1-yl]-1,6,8-triazatricyclo[7.2.1.0 {2,7}]dodeca-2,4,6-triene-8-carboxamide]
- TRP Activity (EC1.5) (Trp peptide assay): B (B (EC1.5 1-25 μM))
- Emax [1]: > 150%

SMILES: O=C(Nc1ccccn1)N1c2nc(-c3cncc(F)c3)ccc2N2CCC1CC2 [Example 570]
- Tryp AVG EC1.5 (μM) [4]: B (B (EC1.5 1-25 μM))

SMILES: Cc1cc(NC(=O)N2c3nc(-c4ccnc(C)c4)ccc3N3CC[C@H]2C3)ccn1 [(9S)-N,5-bis(2-methylpyridin-4-yl)-1,6,8-triazatricyclo[7.2.1.0 {2,7}]dodeca-2(7),3,5-triene-8-carboxamide]
- TRP Activity (EC1.5) (Trp peptide assay): B (B (EC1.5 1-25 μM))
- Emax [1]: > 150%

SMILES: NCc1ccc(NC(=O)N2c3nc(-c4cccc(C(F)(F)F)c4)ccc3N3CC[C@H]2C3)cc1 [Example 429]
- Tryp AVG EC1.5 (μM) [4]: B (B (EC1.5 1-25 μM))

SMILES: Cn1nccc1-c1cccc(NC(=O)N2c3nc(-c4cccc(C(F)(F)F)c4)ccc3N3CC[C@H]2C3)n1 [Example 623]
- Tryp AVG EC1.5 (μM) [4]: A (A (EC1.5<1 μM))

SMILES: CN(C)c1ccc(-c2ccc3c(n2)N(C(=O)Nc2cnccn2)[C@H]2CCN3C2)cn1 [Example 458]
- Tryp AVG EC1.5 (μM) [4]: B (B (EC1.5 1-25 μM))

SMILES: O=C(Nc1ccc(Oc2ccccc2)cc1)N1c2nc(-c3cccc(C(F)(F)F)c3)ccc2N2CC[C@H]1C2 [Example 641]
- Tryp AVG EC1.5 (μM) [2]: C (C (EC1.5>25 μM))

SMILES: O=C(Nc1cccc(-c2cnco2)c1)N1c2nc(-c3cccc(C(F)(F)F)c3)ccc2N2CC[C@H]1C2 [68 (1)]
- Tryp AVG EC1.5 (μM) [5]: A (A (EC1.5<1 μM))

SMILES: Cn1ccc(-c2ccc3c(n2)N(C(=O)Nc2cnccn2)[C@H]2CCN3C2)n1 [(9S)-5-(1-methyl-1H-pyrazol-3-yl)-N-(pyrazin-2-yl)-1,6,8-triazatricyclo[7.2.1.0 {2,7}]dodeca-2(7),3,5-triene-8-carboxamide]
- TRP Activity (EC1.5) (Trp peptide assay): B (B (EC1.5 1-25 μM))
- Emax [1]: > 150%

SMILES: Cc1cc(-c2ccc3c(n2)N(C(=O)Nc2ccc4[nH]ncc4c2)[C@H]2CCN3C2)ccn1 [(9S)-N-(1H-indazol-5-yl)-5-(2-methylpyridin-4-yl)-1,6,8-triazatricyclo[7.2.1.0 {2,7}]dodeca-2(7),3,5-triene-8-carboxamide]
- TRP Activity (EC1.5) (Trp peptide assay): A (A (EC1.5<1 μM))
- Emax [1]: > 150%

SMILES: O=C(Nc1cnccn1)N1c2nc(N3CCNCC3)ccc2N2CC[C@H]1C2 [(9S)-5-(piperazin-1-yl)-N-(pyrazin-2-yl)-1,6,8-triazatricyclo[7.2.1.0 {2,7}]dodeca-2,4,6-triene-8-carboxamide]
- TRP Activity (EC1.5) (Trp peptide assay): C (C (EC1.5>25 μM))
- Emax [1]: < 150%

SMILES: O=C(Nc1cncc(F)c1)N1c2nc(N3CC[C@H](F)C3)ccc2S(=O)(=O)N2CC[C@H]1C2 [Example 469]
- Tryp AVG EC1.5 (μM) [4]: C (C (EC1.5>25 μM))

SMILES: O=C(Nc1ccncc1)N1c2nc(-c3cccc(C(F)(F)F)c3)ccc2N2CC[C@@H]1C2 [Example 824]
- Tryp AVG EC1.5 (μM) [2]: A (A (EC1.5<1 μM))

SMILES: O=C(Nc1cccnc1)N1c2nc(-c3cncc(C(F)(F)F)c3)ccc2N2C[C@@H](O)[C@H]1C2 [Example 705]
- Tryp AVG EC1.5 (μM) [2]: B (B (EC1.5 1-25 μM))

SMILES: O=C(Nc1cccc(-c2cnco2)c1)N1c2nc(-c3cccc(Cl)c3)ccc2N2CC[C@H]1C2 [Example 365]
- Tryp AVG EC1.5 (μM) [3]: A (A (EC1.5<1 μM))

SMILES: Cc1cc(-c2ccc3c(n2)N(C(=O)Nc2cncc(OC(C)C)n2)[C@H]2CCN3C2)ccn1 [(9S)-5-(2-methylpyridin-4-yl)-N-[6-(propan-2-yloxy)pyrazin-2-yl]-1,6,8-triazatricyclo[7.2.1.0 {2,7}]dodeca-2(7),3,5-triene-8-carboxamide]
- TRP Activity (EC1.5) (Trp peptide assay): A (A (EC1.5<1 μM))
- Emax [1]: > 150%

SMILES: O=C(Nc1cnccn1)N1c2nc(-c3ccc(Cl)c(C(F)(F)F)c3)ccc2N2CC[C@H]1C2 [Example 435]
- Tryp AVG EC1.5 (μM) [4]: A (A (EC1.5<1 μM))

SMILES: N#Cc1ccccc1-c1ccc2c(n1)N(C(=O)Nc1ccncn1)[C@H]1CCCN2C1 [Example 451]
- Tryp AVG EC1.5 (μM) [4]: B (B (EC1.5 1-25 μM))

SMILES: CC(C)(C)OC(=O)N1CCc2cc(NC(=O)N3c4nc(-c5cccc(C(F)(F)F)c5)ccc4N4CC[C@H]3C4)ccc2C1 [Example 611]
- Tryp AVG EC1.5 (μM) [4]: A (A (EC1.5<1 μM))

SMILES: Cc1cc(C(F)(F)F)nc(NC(=O)N2c3nc(-c4cccc(C(F)(F)F)c4)ccc3N3CC[C@H]2C3)n1 [Example 94]
- Tryp AVG EC1.5 (μM) [5]: B (B (EC1.5 1-25 μM))

SMILES: O=C(Nc1ccccn1)N1c2nc(N3CCC(C(F)(F)F)C3)ccc2N2CC[C@H]1C2 (stereo partly drawn) [(9S)-N-(pyridin-2-yl)-5-[(3S)-3-(trifluoromethyl)pyrrolidin-1-yl]-1,6,8-triazatricyclo[7.2.1.0^{2,7}]dodeca-2(7),3,5-triene-8-carboxamide]
- TRP Activity (EC1.5) (Trp peptide assay): B (B (EC1.5 1-25 μM))
- Emax [1]: > 150%

SMILES: O=C(Nc1cnccn1)N1c2nc(-c3cnc(C4CC4)c(C(F)(F)F)c3)ccc2N2CC[C@H]1C2 [(9S)-5-[6-cyclopropyl-5-(trifluoromethyl)pyridin-3-yl]-N-(pyrazin-2-yl)-1,6,8-triazatricyclo[7.2.1.0 {2,7}]dodeca-2,4,6-triene-8-carboxamide]
- TRP Activity (EC1.5) (Trp peptide assay): A (A (EC1.5<1 μM))
- Emax [1]: > 150%

SMILES: COc1cc(NC(=O)N2c3nc(-c4cccc(Cl)c4)ccc3N3CC[C@H]2C3)ncn1 [Example 104]
- Tryp AVG EC1.5 (μM) [5]: B (B (EC1.5 1-25 μM))

From patent publication US9834558B2, “Substituted bridged urea analogs as sirtuin modulators” (GLAXOSMITHKLINE LLC, priority 2013, dated 2017)
